Patent publication US10138255B2, “Piperazine derivatives as HIV protease inhibitors” (Merck Sharp & Dohme Corp., priority 2014, dated 2018)

These compounds were tested on HIV-1 (H9IIIB strain) (assay: Cell-Based HIV Infection Assay Using a Reporter (MT4-GFP cells)). Conditions: Human immunodeficiency virus 1, inflection point (IP) of viral growth inhibition; MT4-GFP cells infected with HIV-1 H9IIIB; 50% normal human serum; mean of at least two independent experiments; read-out: Cell Based IP (50% NHS).
Method in brief: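 Inflection point from a 4-parameter curve of % viral growth inhibition, normalised to DMSO and triple-drug controls, using the 48 h/24 h ratio of GFP-positive cells (R0). MT4-GFP cells pre-infected 24 h with HIV-1 H9IIIB at low MOI; compounds tested in 50% normal human serum, 0.4% DMSO; mean of ≥2 experiments.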

Compound | EC50 [nM]
Cn1nc(C(F)(F)F)cc1[C@H](c1ccc(Cl)c(F)c1)[C@H](N)C(=O)Nc1cncc(F)c1CC[C@H]1CN[C@@H]2CCCS(=O)(=O)N1C2 [Example 268, (βR)-4-chloro-N-(4-{2-[(6R,9S)-2,2-dioxido-2-thia-1,7-diazabicyclo[4.3.1]dec-9-yl]ethyl}-5-fluoropyridin-3-yl)-3-fluoro-β-[1-methyl-3-(trifluoromethyl)-1H-pyrazol-5-yl]-L-phenylalaninamide] | 18
N[C@H](C(=O)Nc1cncc(F)c1CC[C@H]1CN[C@@H]2CCCS(=O)(=O)N1C2)[C@@H](c1ccc(Cl)cc1)c1csc(C(F)(F)F)n1 [Example 269, (βR)-4-chloro-N-(4-{2-[(6R,9S)-2,2-dioxido-2-thia-1,7-diazabicyclo[4.3.1]dec-9-yl]ethyl}-5-fluoropyridin-3-yl)-β-[2-(trifluoromethyl)-1,3-thiazol-4-yl]-L-phenylalaninamide] | 5
COC(=O)N[C@H](C(=O)Nc1cccc(F)c1CC[C@H]1CN[C@@H]2CCCS(=O)(=O)N1C2)[C@@H](c1ccc(Cl)cc1)C1CCC(C)(C)OC1 (stereo partly drawn) [Example 271, methyl {(1S,2R)-2-(4-chlorophenyl)-2-(6,6-dimethyltetrahydro-2H-pyran-3-yl)-1-[(2-{2-[(6R,9S)-2,2-dioxido-2-thia-1,7-diazabicyclo[4.3.1]dec-9-yl]ethyl}-3-fluorophenyl)carbamoyl]ethyl}carbamate] | 7
N[C@H](C(=O)Nc1cncc(F)c1CC[C@H]1CN[C@@H]2CCCS(=O)(=O)N1C2)[C@@H](c1ccc(Cl)cc1)C1CCCC(F)(F)C1 (stereo partly drawn) [Example 272, (βR)-4-chloro-β-(3,3-difluorocyclohexyl)-N-(4-{2-[(6R,9S)-2,2-dioxido-2-thia-1,7-diazabicyclo[4.3.1]dec-9-yl]ethyl}-5-fluoropyridin-3-yl)-L-phenylalaninamide] | 5.7
COC(=O)N[C@H](C(=O)Nc1cccc(F)c1CC[C@H]1CN[C@@H]2CCCS(=O)(=O)N1C2)[C@@H](c1ccc(Cl)cc1)C1CCC(C(F)(F)F)OC1 (stereo partly drawn) [Example 273, methyl {(1S,2R)-2-(4-chlorophenyl)-1-[(2-{2-[(6R,9S)-2,2-dioxido-2-thia-1,7-diazabicyclo[4.3.1]dec-9-yl]ethyl}-3-fluorophenyl)carbamoyl]-2-[6-(trifluoromethyl)tetrahydro-2H-pyran-3-yl]ethyl}carbamate] | 14
N[C@H](C(=O)Nc1cccc(F)c1CC[C@H]1CNC[C@@H]2CCCS(=O)(=O)N1C2)[C@@H](c1ccc(Cl)cc1)C1CCOCC1 [Example 274, (2S,3R)-2-Amino-3-(4-chlorophenyl)-N-(2-(2-((6S,10S)-2,2-dioxido-2-thia-1,8-diazabicyclo[4.4.1]undecan-10-yl)ethyl)-3-fluorophenyl)-3-(tetrahydro-2H-pyran-4-yl)propanamide] | 670
CC1(C)C[C@H]([C@H](c2ccc(Cl)cc2)[C@H](N)C(=O)Nc2cccc(F)c2CC[C@H]2CN[C@@H]3CCS(=O)(=O)N2C3)CCO1 [Example 275, (2S,3R)-2-amino-3-(4-chlorophenyl)-3-((R)-2,2-dimethyltetrahydro-2H-pyran-4-yl)-N-(2-(2-((5R,8S)-2,2-dioxido-2-thia-1,6-diazabicyclo[3.3.1]nonan-8-yl)ethyl)-3-fluorophenyl)propanamide] | 25
N[C@H](C(=O)Nc1cccc(F)c1CC[C@H]1CN[C@@H]2CCCS(=O)(=O)N1CC2)[C@@H](c1ccc(F)cc1)c1cc(F)cc(F)c1 [Example 276, (2S,3S)-2-Amino-3-(3,5-difluorophenyl)-N-(2-(2-((6R,9S)-2,2-dioxido-2-thia-1,7-diazabicyclo[4.3.2]undecan-9-yl)ethyl)-3-fluorophenyl)-3-(4-fluorophenyl)propanamide] | 6.1
COC(=O)N[C@H](C(=O)Nc1cccc(F)c1CC[C@H]1CN[C@@H]2CCCCS(=O)(=O)N1C2)[C@@H](c1ccc(F)cc1)c1cc(F)cc(F)c1 [Example 277, Methyl ((1S,2S)-1-(3,5-difluorophenyl)-3-((2-(2-((7R,10S)-2,2-dioxido-2-thia-1,8-diazabicyclo[5.3.1]undecan-10-yl)ethyl)-3-fluorophenyl)amino)-1-(4-fluorophenyl)-3-oxopropan-2-yl)carbamate] | 10
